Legend:
OVCAR5 cells = assay: Cell viability assay (CCK-8), IC50; format: cell-based; settings: Homo sapiens, OVCAR-5, 6 days, medium replenished every 2 days
Description: (§1) Human breast cancer cell lines MDA-MB-231 and SUM-159, and human ovarian cancer cell lines OVCAR5 and SKOV3 were obtained from the American Type Culture Collection (ATCC). MDA-MB-231 cells were cultured in L-15 medium with 10% fetal bovine serum (FBS), incubated at 37 °C in a humidified incubator without additional CO2. SUM-159 cells were maintained in Dulbecco’s modified Eagle’s medium (DMEM) containing 10% FBS, and OVCAR5 and SKOV3 cells were incubated in Roswell Park Memorial Institute (RPMI)-1640 medium with 10% FBS and cultured at 37 °C in a humidified incubator containing 5% CO2.
(§2) Cell viability assay was performed as described before. Briefly, 2500/well of breast or ovarian cancer cells were seeded into a 96-well plate; grown overnight; treated with indicated concentration of Olaparib, LY2835219, ZC22, LP-1, GC-24, or cisplatin alone or together for an indicated amount of time; and then incubated with Cell Counting kit-8 (CCK-8) substrate (Dojindo, Kumamoto, Kyushu Island, Japan) for 1–2 h at 37 °C. Cell viability was calculated by the absorbance at 450 nm measured by the GloMax Explorer (Promega, Madison, WI, USA). Cells without treatment were set as 100%, and medium control (no cells) was set as 0%.
(§3) Figure 1 Synthesis strategy and activity assay of the novel compounds targeting both PARP and CDK4/6. (A) Synthesis strategy of the three novel compounds GC-24, LP-1, and ZC-22. (B) IC50 of GC-24, LP-1, and ZC-22 in breast and ovarian cancer cells. Cells were treated with increasing concentrations of GC-24, LP 1, or ZC-22 for 6 days with replenishment of medium every 2 days. Cell proliferation was analyzed by CCK-8 assays. (C) The reagents and conditions used for the chemical synthesis of ZC-22 in this study: (a) Pd(AcO)2, BINAP, CS2CO3, 1,4-Dioxane, 100 °C, 12 h; (b) CF3COOH, DCM, Room temperature, 6 h; (c) HOBt, EDCI, DIPEA, DMF, Room temperature, 12 h. TEXT PRINTED IN THE PICTURE: (B) LP-1: MDA-MB-231 IC50 (μM): >50; SUM-159 IC50 (μM): 7.780; OVCAR5 IC50 (μM): 10.11; SKOV3 IC50 (μM): 10.16 | (B) GC-24: MDA-MB-231 IC50 (μM): 33.77; SUM-159 IC50 (μM): 17.77; OVCAR5 IC50 (μM): 26.08; SKOV3 IC50 (μM): >50 | (B) ZC-22: MDA-MB-231 IC50 (μM): 3.608; SUM-159 IC50 (μM): 0.435; OVCAR5 IC50 (μM): 0.758; SKOV3 IC50 (μM): 0.542
(§4) Figure 2 ZC-22 suppresses proliferation of breast and ovarian cancer cells. (A) IC50 of ZC-22, Olaparib, and LY2835219 (Abemaciclib) in breast and ovarian cancer cells. Cells were treated with increasing concentrations of ZC-22, Olaparib, or LY2835219 for 6 days with replenishment of medium every 2 days. Cell proliferation was analyzed by CCK-8 assays. (B) Cell proliferation assay of breast and ovarian cancer cells with indicated treatment. MDA-MB-231 cells were treated with 2 μM Olaparib (OLA) or LY2835219 (LY-2) alone or together (OLA + LY-2) or with ZC-22 alone for 48 or 72 h. SUM-159, OVCAR5, and SKOV3 cells were treated with 0.5 μM OLA or LY-2 alone or together or with ZC-22 alone. Cell proliferation assay was analyzed by CCK-8 assays. Values are means ± SD, n = 3. ns, not significant, * p < 0.05, ** p < 0.01 and *** p < 0.001 for comparisons with the DMSO-treated group using an unpaired t-test. TEXT PRINTED IN THE PICTURE: (A) ZC-22: MDA-MB-231 IC50 (μM): 3.608; SUM-159 IC50 (μM): 0.435; OVCAR5 IC50 (μM): 0.758; SKOV3 IC50 (μM): 0.542 | (A) LY2835219: MDA-MB-231 IC50 (μM): 11.28; SUM-159 IC50 (μM): 0.664; OVCAR5 IC50 (μM): 9.791; SKOV3 IC50 (μM): 1.158 | (A) Olaparib: MDA-MB-231 IC50 (μM): 32.13; SUM-159 IC50 (μM): 19.29; OVCAR5 IC50 (μM): 30.51; SKOV3 IC50 (μM): >50

SUM-159 cells = assay: Cell viability assay (CCK-8), IC50; format: cell-based; settings: Homo sapiens, SUM159, 6 days, medium replenished every 2 days
Description: as §1, §2, §3, §4

SKOV3 cells = assay: Cell viability assay (CCK-8), IC50; format: cell-based; settings: Homo sapiens, SK-OV-3, 6 days, medium replenished every 2 days
Description: as §1, §2, §3, §4

MDA-MB-231 cells = assay: Cell viability assay (CCK-8), IC50; format: cell-based; settings: Homo sapiens, 6 days, medium replenished every 2 days
Description: as §1, §2, §3, §4

[1] = test system: MDA-MB-231 xenograft tumors; assay: Breast cancer xenograft mouse model, tumor growth; format: in vivo, mice; settings: 1.5 mg/kg cisplatin or 50 mg/kg ZC-22 ip alone or together
Description: Six-week-old female athymic nude mice (Homozygous) were purchase from Vital River Laboratories (Beijing, China) and maintained under the guidelines for laboratory animals of Nankai university (NKU). Mice were injected subcutaneously with 2 × 10^6 MDA-MB-231 or 8 × 10^6 OVCAR5 cells. When tumors were 50–100 mm^3 in size, the mice were randomly grouped and treated intraperitoneal (i.p.) with 50 mg/kg of Olaparib, 50 mg/kg of LY2835219, 50 mg/kg of ZC-22, or 1.5 mg/kg of cisplatin alone or in combinations or with the vehicle (PBS containing 10% DMSO and 10% 2-hydroxy-propyl-β-cyclodextrin) every 2 days. Tumor volume was measured every 3–4 days, which was calculated as Length × Width^2/2. At the end of the study, tumor and major organ tissues were harvested by surgery. For histopathological analysis, tissue samples were washed with PBS, fixed in 4% paraformaldehyde (PFA), paraffin-embedded, and sectioned into 7 μm thickness. For Western blot analysis, the tissue samples were dissociated by a tissue-tearor in RIPA buffer containing 1×protease and phosphatase inhibitors.
Figure 4 ZC-22 suppresses growth of breast cancer xenografts. Female NOD-SCID mice were injected subcutaneously with 2 × 10^6 of MDA-MB-231 cells and treated ip daily with 50 mg/kg of Olaparib (OLA) or LY2835219 (LY-2) alone or together (OLA + LY-2) or with ZC-22 alone starting on day 10 after injection of cells when tumors were 50–80 mm^3 in size. Tumor volumes were measured every 2–3 days. […] (B,C) Pictures of (B) and quantification of the size of (C) the MDA-MB-231 xenograft tumors at the end points. […] (E) Quantification of Ki67 (Left) and γH2A.X (Right)-positive cells in immunohistochemical staining of the xenograft tumor tissues. […]
Figure 6 ZC-22 sensitizes breast cancer cells to cisplatin treatment in vivo. […] Tumor volumes were measured every 2–3 days. […] (B,C) Pictures (B) and quantification of the size (C) of the MDA-MB-231 xenograft tumors at the end points. […] (E) Quantification of Ki67 (left) and γH2A.X (right)-positive cells in immunohistochemical staining of the xenograft tumor tissues. […]

Row | IC50 (OVCAR5 cells) | IC50 (SKOV3 cells) | IC50 (MDA-MB-231 cells) | SMILES | IC50 (SUM-159 cells) | growth of the xenograft tumors [1]
1 | 26.1 µM | > 50 µM | 33.8 µM | CC(=O)c1c(C)c2cnc(Nc3ccc(N4CCN(C(=O)c5cc(Cc6n[nH]c(=O)c7ccccc67)ccc5F)CC4)cn3)nc2n(C2CCCC2)c1=O [GC-24] | 17.8 µM | –
2 | 10.1 µM | 10.2 µM | > 50 µM | CN(C)C(=O)c1cc2cnc(Nc3ccc(N4CCN(C(=O)c5cc(Cc6n[nH]c(=O)c7ccccc67)ccc5F)CC4)cn3)nc2n1C1CCCC1 [LP-1] | 7.78 µM | –
3 | 30.5 µM | > 50 µM | 32.1 µM | O=C(c1cc(Cc2n[nH]c(=O)c3ccccc23)ccc1F)N1CCN(C(=O)C2CC2)CC1 [Olaparib, reference compound] | 19.3 µM | –
4 | – | – | – | N.N.[Cl][Pt][Cl] [cisplatin] | – | effectively inhibit growth of the xenograft tumors
